Here are results for 5 compounds from patent publication US20260317304A1, “TEAD INHIBITORS AND METHODS OF USE” (Sporos BioDiscovery, Inc., priority 2022, published 2026).

pEC50: −log10 of the molar value.

The test system of one test is NCI-H226 cells. Briefly: Proliferation and cell viability assay, CellTiter-Glo 2.0 (CTG). The test is classed as cell-based, human. The following applies: 144 hrs. As to the method: Cell proliferation of a TEAD dependent NF2-null mesothelioma cell line, NCI-H226 was assayed using two different protocols. Results were confirmed in two different TEAD-non-dependent lung cancer cell lines, H23 and H28, were used as non-responsive controls, as indicated:
a) CellTiter-Glo® 2.0 (Promega #G9243). The effect of the TEAD inhibitors disclosed herein on cell proliferation was determined in TEAD1-genetically dependent cell line NCI-H226 (responder cell line) and TEAD-independent cell lines (NCI-H23, HEK293T), as non-responder, negative control. Cells were seeded in 96-well plates (Thermo Scientific #167008) in growth media (RPMI-1640, Gibco #61870-010) for NCI-H226 and NCI-H23 or DMEM (Gibco #31966-021, HEK293T) with […] Heat Inactivated Fetal Bovine Serum (Gibco 10500-064) at 800 (NCI-H226 and HEK-293T) or 2000 (NCI-H23) cells per well at 37° C., […], humidified incubator; 24 hours later, fresh growth media containing test compound or DMSO vehicle was added and incubated with the cells for 144 hrs. TEAD inhibitor stocks were made at a 1000× fold excess in DMSO, and a dose response test compound dose range of 10,000 to 0.1 nM was used. Each treatment was carried out in triplicate. After 144 hrs of treatment, relative cell viability numbers were determined using the CellTiter-Glo 2.0 assay following the manufacturer's instructions. Test plates and CellTiter-Glo 2.0 reagent were allowed to equilibrate to room temperature. CellTiter-Glo 2.0 reagent was added at 1:1 reagent to media ratio to the 96-well cell plates, plates were placed on a plate shaker for 2 minutes and then incubated at room temperature for a further 10 minutes to allow complete cell lysis to occur. The mix was then transferred to white, 96-well luminometer assay plates (Greiner Bio One #655075). Luminescence was quantified using a CLARIOStar Plus multi-mode plate reader (BMG Labtech) in luminescence detection mode with the recommended settings (ultra-Glo pre-set: emission 545-50 nm with autofocus and enhanced dynamic range on). Relative cell density was expressed as a function of inhibitor concentration, with respect to DMSO-only control wells. Data where plotted using GraphPad Prism and IC50 values for the biological effect were calculated using the EC50 non-linear fit function using a sigmoidal, 4-parameter logistic, least squares fit with no constraints.
For IC50 and EC50 data “A” indicates a value of less than 0.2 μM; the symbol “B” indicates a value in the range of from 0.2 μM up to 1 μM; and the symbol “C” indicates a value of greater than 1 μM. ND: no data.

The test system of a further test is Mero82 cells. Briefly: Mero82 proliferation and cell viability assay (CTG). Type of test: cell-based. The following applies: 144 hours. As to the method:
Mero 82 cells were trypsinised, counted and plated at 400 cells/well in 200 μl of growth media in 96 well flat bottom tissue culture treated plates. The plated cells were incubated overnight at 37° C., 5% CO2 before being treated with compounds in triplicate for each assay point. 50 μl of the serially diluted compound was added to each well giving a final DMSO concentration of 0.5% per well and a total volume of 250 μl per well. The treated cells were incubated for 144 hours (6 days) at 37° C., 5% CO2. Following compound treatment, the remaining viable cells were detected using the Promega CellTiter-Glo 2.0 assay as follows: 150 μl of media was removed from each of the wells to be assayed and 100 μl of room temperature CellTiter-Glo 2.0 reagent was added. The plate was placed on an orbital shaker at 500 rpm at room temperature for 2 minutes, and then incubated without shaking for a further 10 minutes at room temperature. 150 μl of cell lysate was removed from each well and dispensed into a single well of a white opaque 96 well plate. Luminescence at 545 nm was read using a BMG CLARIOstar plate reader. The luminescent signal was directly proportional to number of viable cells, the percent of viable cells relative to the DMSO control was then calculated for each assay point. Percent viability relative to DMSO control was plotted against compound concentration and a curve fitted with non-linear regression in GraphPad Prism software. EC50 and absolute IC50 values were calculated using GraphPad Prism software as follows: For EC50 values, a non-constrained four-parameter logistic curve fit was used (Sigmoidal, 4PL, X is concentration). For Absolute IC50 values the baseline was constrained to Y=0 and top at 100 (Absolute IC50, X is concentration). Area Under the Curve (AUC): Prism computes area-under-the-curve by the trapezoidal method. The analysis sees a fitted curve as simply a series of connected XY points. Prism simply computes the area under the “curve” defined by connecting the points by straight lines. The units of the AUC are the units of the Y axis times units of the X axis.
(§1) For EC50 data, the symbol “A” indicates a value of less than 0.2 μM; the symbol “B” indicates a value in the range of from 0.2 μM up to 1 μM; and the symbol “C” indicates a value of greater than 1 μM.

In the next test the test system is SDM103T2 cells. Description: SDM103T2 proliferation and cell viability assay (CTG). As to conditions: 144 hours. Type of test: cell-based. Here is the method: SDM103T2 cells were trypsinised, counted and plated at 800 cells/well in 200 μl of growth media in 96 well flat bottom tissue culture treated plates. The plated cells were incubated overnight at 37° C., 5% CO2 before being treated with compounds in triplicate for each assay point. 50 μl of the serially diluted compound was added to each well giving a final DMSO concentration of 0.5% per well and a total volume of 250 μl per well. The treated cells were incubated for 144 hours (6 days) at 37° C., 5% CO2. Following compound treatment the remaining viable cells were detected using the Promega CellTiter-Glo 2.0 assay as follows: 150 μl of media was removed from each of the wells to be assayed and 100 μl of room temperature CellTiter-Glo 2.0 reagent was added. The plate was placed on an orbital shaker at 500 rpm at room temperature for 2 minutes, and then incubated without shaking for a further 10 minutes at room temperature. 150 μl of cell lysate was removed from each well and dispensed into a single well of a white opaque 96 well plate. Luminescence at 545 nm was read using a BMG CLARIOstar plate reader. The luminescent signal was directly proportional to number of viable cells, the percent of viable cells relative to the DMSO control was then calculated for each assay point. Percent viability relative to DMSO control was plotted against compound concentration and a curve fitted with non-linear regression in GraphPad Prism software. EC50 and absolute IC50 values were calculated using GraphPad Prism software as follows: For EC50 values a non-constrained four-parameter logistic curve fit was used (Sigmoidal, 4PL, X is concentration). For Absolute IC50 values the baseline was constrained to Y=0 and top at 100 (Absolute IC50, X is concentration). Area Under the Curve (AUC): Prism computes area-under-the-curve by the trapezoidal method. The analysis sees a fitted curve as simply a series of connected XY points. Prism simply computes the area under the “curve” defined by connecting the points by straight lines. The units of the AUC are the units of the Y axis times units of the X axis.
as §1

The mark [1] stands for this setting: Homo sapiens, NCI-H226, responder cell line.

As for `Cn1cnc(-c2cc([C@@]3(C)CCNC3=O)ccc2Nc2ccc(C(F)(F)F)cc2)c1` (single isomer, unassigned) [Compound 5, 3-methyl-3-(3-(1-methyl-1H-imidazol-4-yl)-4-((4-(trifluoromethyl)phenyl)amino)phenyl)pyrrolidin-2-one], the negative logarithm of the EC50 (pEC50) in the test on NCI-H226 cells (setting [1]), in the test with Mero82 cells and with SDM103T2 cells was more than 6.70 throughout.
Turning to `Cn1cnc(-c2cc(C3(C)NC(=O)NC3=O)ccc2Nc2ccc(C(F)(F)F)cc2)c1` (single isomer, unassigned) [Compound 15, 5-methyl-5-(3-(1-methyl-1H-imidazol-4-yl)-4-((4-(trifluoromethyl)phenyl)amino)phenyl)imidazolidine-2,4-dione], the pEC50 with NCI-H226 cells (responder cell line), with Mero82 cells and with SDM103T2 cells was more than 6.70 throughout.
With `Cn1nnc(-c2cc([C@]3(C)CCNC3=O)ccc2Nc2ccc(C(F)(F)F)cc2)n1` (stereo in doubt) [Compound 20, 3-methyl-3-(3-(2-methyl-2H-tetrazol-5-yl)-4-((4-(trifluoromethyl)phenyl)amino)phenyl) pyrrolidin-2-one], the pEC50 in the test with NCI-H226 cells (setting [1]), with Mero82 cells and in the test on SDM103T2 cells was more than 6.70 throughout.
For the compound `FC(F)(F)c1ccc(CN2CCC(C3CC(Br)=NO3)CC2)cc1` (stereo not shown) [Compound 1-2, reference compound], the pEC50 in the test with Mero82 cells and in the test with SDM103T2 cells was less than 6.00 each time.
For the compound `C=CC(=O)Nc1ccc(C)c(Oc2ccc(Cl)cc2)c1` [Compound 1-3, reference compound], the pEC50 in the test with Mero82 cells and in the test with SDM103T2 cells was more than 6.70 in each case.
